ChEMBL document CHEMBL1201862, “PubChem BioAssay data set” (2004)
Several values for one entry are separate records, joined by “and”; a condition that tells them apart may be missing. Identical values can stand only once. Activity calls are given as the source filed them.

How the values were obtained:
INS1 = assay: beta cell apoptosis inhibitors, cytokine rescue, dose response, luminescence, retest (AID 449756); assay type: functional, cell-based;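 note: cell death triggered by IL-1 beta plus TNF-alpha plus IFN-gamma mixture; protective hits raise ATP signal compared with cytokine alone wells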
[1] = C. albicans growth with fluconazole, confirmation, fluorescence, retest (AID 2467); assay type: functional, cell-based
[2] = biological target: T1, Microphthalmia-associated transcription factor (Homo sapiens, UniProt O75030); assay: TRPM1 promoter luciferase signal decrease, dose response, MITF inhibitor project, cell-based, SK-MEL-5, cherry-picked, set 3 (AID 493073); assay type: functional
T1 sequence (O75030 whole entry): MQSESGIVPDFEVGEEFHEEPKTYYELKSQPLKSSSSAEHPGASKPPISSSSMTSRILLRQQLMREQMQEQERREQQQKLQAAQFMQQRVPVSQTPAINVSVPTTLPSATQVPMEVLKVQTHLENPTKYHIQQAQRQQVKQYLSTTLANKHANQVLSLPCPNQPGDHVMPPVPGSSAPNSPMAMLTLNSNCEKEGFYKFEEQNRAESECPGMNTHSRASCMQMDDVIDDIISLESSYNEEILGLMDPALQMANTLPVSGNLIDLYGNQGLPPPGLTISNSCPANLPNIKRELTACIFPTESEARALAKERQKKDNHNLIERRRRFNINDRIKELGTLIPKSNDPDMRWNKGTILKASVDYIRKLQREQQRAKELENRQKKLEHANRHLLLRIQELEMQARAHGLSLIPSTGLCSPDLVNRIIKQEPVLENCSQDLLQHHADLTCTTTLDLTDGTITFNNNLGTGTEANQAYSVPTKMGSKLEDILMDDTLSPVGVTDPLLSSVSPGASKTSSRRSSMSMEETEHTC

[3] = inhibitors of intracellular T. cruzi replication, confirmation, NIH3T3 host cells, beta-gal luminescence (AID 2044); assay type: functional, cell-based;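 note: intracellular parasites grown in NIH/3T3 mouse fibroblasts as host cells; luminescent beta-galactosidase reporter signal from transgenic T. cruzi replicating inside host cells; inhibitors lower the luminescence signal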
[4] = biological target: T2, Ubiquitin-conjugating enzyme E2 N (Homo sapiens, UniProt P61088); assay type: functional;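 note: Dose-response confirmation in a TR-FRET assay detecting UBC13-driven polyubiquitin chain formation, inhibition measured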
T2 sequence (P61088 whole entry): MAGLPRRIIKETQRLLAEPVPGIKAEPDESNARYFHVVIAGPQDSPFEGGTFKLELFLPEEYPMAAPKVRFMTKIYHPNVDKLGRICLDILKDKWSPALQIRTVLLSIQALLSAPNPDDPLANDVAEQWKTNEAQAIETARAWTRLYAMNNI

[5] = cytotoxicity toward NIH3T3 fibroblasts, dose response, counter-screen, cell-based, ATP luminescence, mouse fibroblasts (AID 2010); assay type: functional;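 note: cells exposed to compound for about 90 hours before reading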
A-375 = assay: MITF: Counter assay: A375 proliferation Measured in Cell-Based System Using Plate Reader - 2084-03_Inhibitor_Dose_DryPowder_Activity. [Related pubchem assays (depositor defined):AID488944]; assay type: functional; details: Homo sapiens
cells [6] = assay: cells
[7] = biological target: Dual specificity protein phosphatase 3 (Homo sapiens, UniProt P51452); assay: VHR phosphatase inhibition, dose response, selectivity assay for STEP inhibitor project, biochemical (AID 602374); assay type: functional; details: read-out: IC50_Mean
[8] = biological target: T3, Tyrosine-protein phosphatase non-receptor type 5 (Homo sapiens, UniProt P54829); assay: STEP phosphatase inhibitors, confirmation, biochemical, fluorescence intensity, uHTS hits (AID 602372); assay type: functional; details: read-out: IC50_Mean
T3 sequence (P54829 whole entry): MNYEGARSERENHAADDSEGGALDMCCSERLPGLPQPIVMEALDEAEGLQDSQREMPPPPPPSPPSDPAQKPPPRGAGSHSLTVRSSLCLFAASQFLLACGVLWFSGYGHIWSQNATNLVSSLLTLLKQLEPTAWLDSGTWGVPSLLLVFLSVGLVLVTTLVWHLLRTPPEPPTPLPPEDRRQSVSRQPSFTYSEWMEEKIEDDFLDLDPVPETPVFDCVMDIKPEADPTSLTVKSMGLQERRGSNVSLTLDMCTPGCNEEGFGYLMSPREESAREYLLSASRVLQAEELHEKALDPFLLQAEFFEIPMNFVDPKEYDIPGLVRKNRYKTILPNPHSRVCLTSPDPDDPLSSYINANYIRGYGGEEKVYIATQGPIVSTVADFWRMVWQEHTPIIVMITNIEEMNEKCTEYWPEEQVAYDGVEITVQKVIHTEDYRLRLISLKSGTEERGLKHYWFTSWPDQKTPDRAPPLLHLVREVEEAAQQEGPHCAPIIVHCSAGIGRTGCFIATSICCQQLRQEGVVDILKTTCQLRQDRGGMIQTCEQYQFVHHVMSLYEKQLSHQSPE

[9] = biological target: Peroxisome proliferator-activated receptor gamma/Nuclear receptor coactivator 3 (Homo sapiens, UniProt P37231); assay type: functional;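 note: agonist potency for raising coactivator recruitment to the receptor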
[10] = biological target: Protein-tyrosine kinase 2-beta (Homo sapiens, UniProt Q14289);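 note: potency of inhibitors of PYK2 kinase phosphorylation of poly-GT substrate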
BJ [11] = assay: cytotoxicity toward BJ-TERT-LT-ST fibroblasts, dose response, cell-based, RAS-independent, luminescence (AID 1935); assay type: functional; details: Homo sapiens;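 note: BJ fibroblasts immortalized with TERT plus LT and ST oncogenes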
BJ [12] = assay: cells; assay type: functional, cell-based; details: Homo sapiens
[13] = biological target: Peroxisome proliferator-activated receptor gamma/Nuclear receptor coactivator 1 (Homo sapiens, UniProt P37231); assay type: functional;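 note: agonist potency as compounds enhance coactivator SRC-1 recruitment to PPARgamma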
[14] = cytotoxicity toward DRD oncogenic fibroblasts, dose response, cell-based, non-viral oncogenic, luminescence (AID 1934); assay type: functional; details: Homo sapiens
[15] = biological target: Peroxisome proliferator-activated receptor gamma/Nuclear receptor coactivator 2 (Homo sapiens, UniProt P37231); assay type: functional;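 note: agonist potency for raising coactivator recruitment to the receptor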
[16] = biological target: T4, Tyrosine-protein phosphatase non-receptor type 11 (Homo sapiens, UniProt Q06124); assay: SHP2 phosphatase inhibition, dose response, selectivity assay for STEP inhibitor project, biochemical (AID 602367); assay type: functional; details: read-out: IC50_Mean
T4 sequence (Q06124 whole entry): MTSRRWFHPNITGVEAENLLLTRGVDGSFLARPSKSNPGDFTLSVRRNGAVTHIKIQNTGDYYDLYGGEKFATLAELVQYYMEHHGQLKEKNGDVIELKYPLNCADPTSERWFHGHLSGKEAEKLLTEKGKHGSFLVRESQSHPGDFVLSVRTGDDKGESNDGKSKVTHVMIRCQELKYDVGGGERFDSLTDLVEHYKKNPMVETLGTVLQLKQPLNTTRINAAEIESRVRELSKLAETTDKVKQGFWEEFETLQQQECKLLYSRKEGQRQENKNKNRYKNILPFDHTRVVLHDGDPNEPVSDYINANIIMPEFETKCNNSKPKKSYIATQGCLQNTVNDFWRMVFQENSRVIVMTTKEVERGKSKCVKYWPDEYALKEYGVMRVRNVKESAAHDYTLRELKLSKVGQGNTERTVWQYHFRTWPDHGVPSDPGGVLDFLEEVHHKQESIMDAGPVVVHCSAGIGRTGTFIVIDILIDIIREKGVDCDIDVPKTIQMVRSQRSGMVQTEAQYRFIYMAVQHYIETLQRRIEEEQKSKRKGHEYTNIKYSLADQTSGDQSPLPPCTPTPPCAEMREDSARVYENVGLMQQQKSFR

BJ [17] = assay: cytotoxicity toward BJ-TERT fibroblasts, dose response, cell-based, RAS-independent, luminescence (AID 1933); assay type: functional; details: Homo sapiens
Melanocortin receptor 4 = Melanocortin receptor 4 (Homo sapiens, UniProt P32245); assay type: functional, cell-based;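 note: Cell-based assay with luminescence read-out, confirmatory dose-response testing for agonist activity of biased ligands at MC4R; human U2OS cells with tagged receptor and beta-arrestin; potency of agonists that increase receptor coupling to beta-arrestin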
Bcl-2-related protein A1 [18] = biological target: T5, Bcl-2-related protein A1 (Mus musculus, UniProt Q07440); assay: Bfl-1 binding inhibitors, SAR follow-up, biochemical, fluorescence polarization (AID 1070)
T5 sequence (Q07440 whole entry): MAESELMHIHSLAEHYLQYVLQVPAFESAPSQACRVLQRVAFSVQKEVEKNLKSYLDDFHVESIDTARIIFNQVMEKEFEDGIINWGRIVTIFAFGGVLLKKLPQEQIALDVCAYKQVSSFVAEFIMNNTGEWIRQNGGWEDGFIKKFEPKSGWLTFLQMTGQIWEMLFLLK

Bcl-2-related protein A1 [19] = biological target: T5, Bcl-2-related protein A1; assay: Bfl-1 inhibitors blocking BH3 peptide binding, confirmation, biochemical, TR-FRET, mouse Bfl-1 (AID 621);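 note: TR-FRET binding of GST-Bfl-1 to FITC-labelled Bid peptide via terbium antibody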
[20] = biological target: Glyceraldehyde-3-phosphate dehydrogenase (Homo sapiens, UniProt P04406)
Estrogen receptor beta [21] = biological target: T6, Estrogen receptor beta (Homo sapiens, UniProt Q92731); assay: ERβ–SRC-3 coactivator interaction inhibitors, confirmation, orthogonal assay, biochemical, ELISA, streptavidin-HRP readout (AID 1060)
Estrogen receptor beta [22] = biological target: T6, Estrogen receptor beta
[23] = biological target: Epstein-Barr nuclear antigen 1 (Epstein-Barr virus (strain B95-8) (HHV-4) (Human herpesvirus 4), UniProt P03211); assay: EBNA-1 inhibitors, dose response, biochemical, fluorescence polarization, 1536-well (AID 2381); set-up: species or system human gammaherpesvirus 4;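 note: fluorescence polarization of a Cy5 DNA probe bound by EBNA-1 protein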
[24] = biological target: Lytic switch protein BZLF1 (Epstein-Barr virus (strain B95-8) (HHV-4) (Human herpesvirus 4), UniProt P03206); assay: EBV ZTA inhibitors, dose response, counter-screen for EBNA-1 inhibitor project, biochemical, fluorescence polarization, Epstein-Barr virus, 1536-well (AID 2377); set-up: species or system human gammaherpesvirus 4;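 note: fluorescence polarization of Cy5-labelled ZRE DNA probe bound by purified Zta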
Estrogen receptor = Estrogen receptor (Homo sapiens, UniProt P03372);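 note: potency for inhibiting coactivator peptide recruitment to the receptor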
[25] = biological target: T7, Carboxy-terminal domain RNA polymerase II polypeptide A small phosphatase 1 (Homo sapiens, UniProt Q9GZU7); assay: inhibitors of CTDSP1, concentration-response testing, biochemical assay, absorbance-based, actives from ultra-high-throughput screening (AID 540297); assay type: functional
T7 sequence (Q9GZU7 whole entry): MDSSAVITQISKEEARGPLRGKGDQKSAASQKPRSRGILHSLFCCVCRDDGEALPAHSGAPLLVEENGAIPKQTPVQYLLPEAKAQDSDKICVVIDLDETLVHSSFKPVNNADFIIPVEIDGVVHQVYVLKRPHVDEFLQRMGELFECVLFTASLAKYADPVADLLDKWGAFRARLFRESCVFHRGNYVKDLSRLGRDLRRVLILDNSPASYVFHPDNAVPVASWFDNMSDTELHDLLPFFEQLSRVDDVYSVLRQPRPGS

cells [26] = assay type: functional, cell-based; details: HEK-CNG
Galanin receptor type 3 = biological target: T8, Galanin receptor type 3 (Homo sapiens, UniProt O60755); assay: Fluorescence-based cell-based primary high throughput dose response assay to identify antagonists of the Galanin Receptor 3 (GalR3).; assay type: functional
T8 sequence (O60755 whole entry): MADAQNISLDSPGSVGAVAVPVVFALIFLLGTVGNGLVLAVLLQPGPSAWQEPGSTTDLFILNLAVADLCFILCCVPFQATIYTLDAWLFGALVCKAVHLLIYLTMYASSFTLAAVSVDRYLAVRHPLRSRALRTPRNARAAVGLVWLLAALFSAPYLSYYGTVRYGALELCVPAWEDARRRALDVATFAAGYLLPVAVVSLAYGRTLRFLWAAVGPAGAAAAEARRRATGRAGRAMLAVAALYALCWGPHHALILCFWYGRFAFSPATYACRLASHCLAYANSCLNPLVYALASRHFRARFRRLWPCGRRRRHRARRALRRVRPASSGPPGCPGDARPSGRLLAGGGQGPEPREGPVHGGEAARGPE

T6 sequence (Q92731 whole entry): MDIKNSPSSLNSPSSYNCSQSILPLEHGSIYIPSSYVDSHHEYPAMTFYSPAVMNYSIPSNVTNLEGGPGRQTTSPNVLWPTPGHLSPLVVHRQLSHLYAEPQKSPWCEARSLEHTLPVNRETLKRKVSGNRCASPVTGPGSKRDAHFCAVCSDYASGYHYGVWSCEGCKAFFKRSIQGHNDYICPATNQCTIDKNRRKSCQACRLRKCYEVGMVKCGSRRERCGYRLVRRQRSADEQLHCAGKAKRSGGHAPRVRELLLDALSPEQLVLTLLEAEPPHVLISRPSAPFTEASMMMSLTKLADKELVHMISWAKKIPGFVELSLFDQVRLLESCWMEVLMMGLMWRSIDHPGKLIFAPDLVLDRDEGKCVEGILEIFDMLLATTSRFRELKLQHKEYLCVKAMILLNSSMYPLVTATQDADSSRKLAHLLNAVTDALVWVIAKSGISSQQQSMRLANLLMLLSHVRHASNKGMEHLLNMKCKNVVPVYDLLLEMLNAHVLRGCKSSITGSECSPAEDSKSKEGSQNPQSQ
Chain of Epstein-Barr nuclear antigen 1 (P03211 whole entry): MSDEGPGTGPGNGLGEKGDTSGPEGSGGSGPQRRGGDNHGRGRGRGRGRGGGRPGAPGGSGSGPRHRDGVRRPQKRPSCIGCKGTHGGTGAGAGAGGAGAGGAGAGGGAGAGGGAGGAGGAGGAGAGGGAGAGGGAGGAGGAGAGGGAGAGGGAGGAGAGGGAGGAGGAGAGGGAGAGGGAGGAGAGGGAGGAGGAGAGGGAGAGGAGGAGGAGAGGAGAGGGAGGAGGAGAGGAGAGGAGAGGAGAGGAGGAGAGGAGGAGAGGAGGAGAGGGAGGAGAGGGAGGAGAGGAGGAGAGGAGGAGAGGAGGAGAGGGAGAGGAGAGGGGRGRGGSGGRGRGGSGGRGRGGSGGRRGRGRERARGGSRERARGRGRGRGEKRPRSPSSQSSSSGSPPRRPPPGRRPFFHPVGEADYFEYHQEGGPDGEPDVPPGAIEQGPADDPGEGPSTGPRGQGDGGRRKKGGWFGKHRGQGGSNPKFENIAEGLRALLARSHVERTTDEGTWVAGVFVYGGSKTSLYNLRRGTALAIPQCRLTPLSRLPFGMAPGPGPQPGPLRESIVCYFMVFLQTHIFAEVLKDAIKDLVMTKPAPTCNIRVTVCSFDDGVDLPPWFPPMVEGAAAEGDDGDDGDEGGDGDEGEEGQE
Chain of Estrogen receptor (P03372 whole entry, the tested form may be a part): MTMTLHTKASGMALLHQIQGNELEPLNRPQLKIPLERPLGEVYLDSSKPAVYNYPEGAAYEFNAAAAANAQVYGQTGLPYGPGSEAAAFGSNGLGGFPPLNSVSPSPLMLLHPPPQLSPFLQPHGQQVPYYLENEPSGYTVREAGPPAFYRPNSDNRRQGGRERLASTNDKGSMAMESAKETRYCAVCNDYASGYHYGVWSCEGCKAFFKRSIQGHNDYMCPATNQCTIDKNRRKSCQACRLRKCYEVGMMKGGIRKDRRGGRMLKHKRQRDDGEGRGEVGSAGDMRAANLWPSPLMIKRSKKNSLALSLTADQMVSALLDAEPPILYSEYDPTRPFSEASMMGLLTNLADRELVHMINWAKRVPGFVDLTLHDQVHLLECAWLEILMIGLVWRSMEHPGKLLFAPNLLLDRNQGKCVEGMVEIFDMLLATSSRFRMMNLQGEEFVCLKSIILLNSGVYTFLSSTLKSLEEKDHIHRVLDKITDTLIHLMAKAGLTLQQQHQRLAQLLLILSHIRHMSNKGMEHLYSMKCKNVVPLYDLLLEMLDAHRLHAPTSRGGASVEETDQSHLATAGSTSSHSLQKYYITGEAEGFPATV
Chain of Protein-tyrosine kinase 2-beta (Q14289 whole entry): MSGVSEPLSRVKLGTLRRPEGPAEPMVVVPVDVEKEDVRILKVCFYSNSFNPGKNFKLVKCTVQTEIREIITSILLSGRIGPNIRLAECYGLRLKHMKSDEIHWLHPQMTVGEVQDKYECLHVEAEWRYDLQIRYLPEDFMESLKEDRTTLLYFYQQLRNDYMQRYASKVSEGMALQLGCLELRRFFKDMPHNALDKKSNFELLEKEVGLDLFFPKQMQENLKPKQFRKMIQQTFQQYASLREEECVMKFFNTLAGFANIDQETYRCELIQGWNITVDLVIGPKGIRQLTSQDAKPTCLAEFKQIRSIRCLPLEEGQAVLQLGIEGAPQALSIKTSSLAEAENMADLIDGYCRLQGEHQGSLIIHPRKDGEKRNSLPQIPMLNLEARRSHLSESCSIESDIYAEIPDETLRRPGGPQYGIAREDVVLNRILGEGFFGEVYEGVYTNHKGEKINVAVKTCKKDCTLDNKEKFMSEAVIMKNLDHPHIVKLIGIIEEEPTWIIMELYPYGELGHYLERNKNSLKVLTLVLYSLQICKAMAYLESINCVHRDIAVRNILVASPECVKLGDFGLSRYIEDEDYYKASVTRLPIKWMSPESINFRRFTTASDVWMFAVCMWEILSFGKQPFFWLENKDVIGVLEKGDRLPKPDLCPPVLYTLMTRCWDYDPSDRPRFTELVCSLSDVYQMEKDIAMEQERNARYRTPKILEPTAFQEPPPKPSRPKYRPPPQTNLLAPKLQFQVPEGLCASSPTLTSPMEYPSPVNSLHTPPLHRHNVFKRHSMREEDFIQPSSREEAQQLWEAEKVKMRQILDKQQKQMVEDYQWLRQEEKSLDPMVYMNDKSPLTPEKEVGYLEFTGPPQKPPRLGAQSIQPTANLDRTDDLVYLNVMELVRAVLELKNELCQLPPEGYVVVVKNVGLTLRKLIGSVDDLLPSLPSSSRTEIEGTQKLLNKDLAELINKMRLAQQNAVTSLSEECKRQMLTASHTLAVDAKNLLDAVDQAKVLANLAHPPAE
Chain of Lytic switch protein BZLF1 (P03206 whole entry): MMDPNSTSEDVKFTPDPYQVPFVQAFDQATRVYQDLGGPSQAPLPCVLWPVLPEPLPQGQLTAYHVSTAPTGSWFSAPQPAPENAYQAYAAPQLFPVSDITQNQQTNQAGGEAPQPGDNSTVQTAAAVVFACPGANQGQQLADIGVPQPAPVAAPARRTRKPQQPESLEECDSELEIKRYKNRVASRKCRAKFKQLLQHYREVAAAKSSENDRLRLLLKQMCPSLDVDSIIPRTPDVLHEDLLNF
Chain of Peroxisome proliferator-activated receptor gamma/Nuclear receptor coactivator 2 (P37231 whole entry): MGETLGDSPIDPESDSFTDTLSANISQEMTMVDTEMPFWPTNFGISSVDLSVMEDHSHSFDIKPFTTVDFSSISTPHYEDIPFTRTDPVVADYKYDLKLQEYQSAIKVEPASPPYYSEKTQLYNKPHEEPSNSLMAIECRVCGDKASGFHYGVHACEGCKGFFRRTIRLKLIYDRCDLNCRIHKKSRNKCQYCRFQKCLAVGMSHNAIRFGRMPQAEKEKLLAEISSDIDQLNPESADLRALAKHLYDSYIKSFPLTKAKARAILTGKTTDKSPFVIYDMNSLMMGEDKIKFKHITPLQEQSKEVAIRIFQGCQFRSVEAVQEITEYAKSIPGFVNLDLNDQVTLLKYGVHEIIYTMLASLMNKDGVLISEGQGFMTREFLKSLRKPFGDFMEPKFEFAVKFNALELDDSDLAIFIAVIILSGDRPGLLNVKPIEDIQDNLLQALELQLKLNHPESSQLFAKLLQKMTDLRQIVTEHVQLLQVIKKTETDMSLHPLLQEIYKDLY
Chain of Peroxisome proliferator-activated receptor gamma/Nuclear receptor coactivator 2 (Q15596 whole entry, further chain): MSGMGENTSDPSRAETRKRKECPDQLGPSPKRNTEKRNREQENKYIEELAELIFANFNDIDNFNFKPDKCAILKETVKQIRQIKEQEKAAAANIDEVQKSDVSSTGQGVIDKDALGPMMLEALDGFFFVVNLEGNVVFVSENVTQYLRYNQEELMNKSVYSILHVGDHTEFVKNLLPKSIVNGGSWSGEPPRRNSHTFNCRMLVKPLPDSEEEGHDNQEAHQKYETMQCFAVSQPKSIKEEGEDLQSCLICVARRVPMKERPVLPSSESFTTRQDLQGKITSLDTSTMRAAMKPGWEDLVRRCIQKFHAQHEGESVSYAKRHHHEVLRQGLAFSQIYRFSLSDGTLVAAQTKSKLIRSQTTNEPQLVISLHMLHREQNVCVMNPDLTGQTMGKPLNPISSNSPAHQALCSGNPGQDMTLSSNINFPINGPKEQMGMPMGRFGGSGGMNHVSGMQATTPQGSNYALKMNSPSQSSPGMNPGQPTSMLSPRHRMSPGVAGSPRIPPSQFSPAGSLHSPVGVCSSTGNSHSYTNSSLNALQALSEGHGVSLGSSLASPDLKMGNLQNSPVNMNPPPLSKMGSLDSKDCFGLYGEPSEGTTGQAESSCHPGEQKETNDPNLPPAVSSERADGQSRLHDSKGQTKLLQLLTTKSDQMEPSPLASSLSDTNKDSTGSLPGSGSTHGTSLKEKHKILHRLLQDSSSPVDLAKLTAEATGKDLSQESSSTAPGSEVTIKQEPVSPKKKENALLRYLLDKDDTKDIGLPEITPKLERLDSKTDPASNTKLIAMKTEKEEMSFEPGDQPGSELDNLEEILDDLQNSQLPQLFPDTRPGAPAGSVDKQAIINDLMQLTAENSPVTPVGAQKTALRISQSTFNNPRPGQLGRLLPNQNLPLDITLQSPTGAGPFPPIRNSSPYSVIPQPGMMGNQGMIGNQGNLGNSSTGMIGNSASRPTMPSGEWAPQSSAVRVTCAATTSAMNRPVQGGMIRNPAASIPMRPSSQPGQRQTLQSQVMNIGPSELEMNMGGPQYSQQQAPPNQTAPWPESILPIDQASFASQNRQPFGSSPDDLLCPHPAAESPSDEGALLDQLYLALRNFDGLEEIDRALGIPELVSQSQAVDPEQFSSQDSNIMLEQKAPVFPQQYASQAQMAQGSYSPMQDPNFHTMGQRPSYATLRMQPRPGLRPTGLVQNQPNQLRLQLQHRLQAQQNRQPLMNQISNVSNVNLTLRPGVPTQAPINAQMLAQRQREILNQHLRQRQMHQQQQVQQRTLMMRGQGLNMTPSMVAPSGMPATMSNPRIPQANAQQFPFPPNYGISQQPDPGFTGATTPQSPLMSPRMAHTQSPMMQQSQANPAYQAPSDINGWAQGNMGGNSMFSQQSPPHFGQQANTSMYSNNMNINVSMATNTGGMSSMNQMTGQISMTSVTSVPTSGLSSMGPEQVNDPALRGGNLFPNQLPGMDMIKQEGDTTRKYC

CC1CCC(C(C)C)C(OC(=O)Cn2c(-c3ccc(Br)cc3)[n+](C)c3ccccc32)C1 (stereo not given)
AC50 (INS1; Rattus norvegicus, INS1): 3.63 µM (active) | AC50 (INS1; ins1): 2.8 µM (active) | EC50 [1]: 227 nM (active) and 290 nM (active) | AC50 [2]: 7.12 µM (active) | EC50 [3]: < 0.1 µM (active) | IC50 [4]: > 20 µM (inactive) | EC50 [5]: > 60 µM (not active) | AC50 (A-375): 36.8 µM (active) | EC50 (cells [6]): 0.409 µM (active)

COc1ccc(-n2nc(C(=O)NCC(=O)Nc3ccccn3)c3ccccc3c2=O)cc1Cl
IC50 [7]: 3.14 µM (active) | IC50 [8]: 42.3 µM (inactive) | EC50 [9]: 37.7 µM (not active) | IC50 [10]: > 69.5 µM (not active) | EC50 (BJ [11]): > 150 µM (not active) | EC50 (BJ [12]): 21.6 µM (active) | EC50 [13]: 25.8 µM (not active) | EC50 [14]: 28.5 µM (active) | EC50 [15]: 19.2 µM (not active) | IC50 [16]: 1.98 µM (active) | EC50 (BJ [17]): 31.5 µM (active) | EC50 (Melanocortin receptor 4): > 89.2 µM (inactive)

COc1ncccc1-c1nnn(-c2ccccc2)n1
IC50 (Bcl-2-related protein A1 [18]): > 100 µM (not active) | IC50 (Bcl-2-related protein A1 [19]): > 100 µM (not active)

CN1CCN(C2CC(=O)N(c3ccc(Cl)c(Cl)c3)C2=O)CC1 (stereo not given)
IC50 (Bcl-2-related protein A1 [18]): > 100 µM (not active) | IC50 (Bcl-2-related protein A1 [19]): > 100 µM (not active) | IC50 [20]: > 100 µM (not active)

Cc1ccc(S(=O)(=O)Cc2ccc(C(=O)N3CCN(Cc4ccccc4)CC3)o2)cc1
IC50 (Estrogen receptor beta [21]): 19.2 µM (not active) | IC50 (Estrogen receptor beta [22]): 8.83 µM (active)

O=C(Cn1nnc(-c2ccccc2NC(=O)c2ccccc2)n1)Nc1ccc2c(c1)OCCO2
IC50 [23]: 16.4 µM (not active) | IC50 [24]: > 111 µM (not active)

COc1ccc(C2C=C(c3ccc(Cl)cc3)Nc3nc(NC(C)=O)nn32)cc1 (stereo not given)
IC50 (Estrogen receptor): 21.9 µM (active)

NC(=O)c1ccc(F)cc1
IC50 (Estrogen receptor): > 50 µM (not active)

CCOc1ccc(NC(=O)C(=O)N/N=C\c2ccc(CNS(=O)(=O)c3ccccc3)o2)cc1
IC50 [23]: 7.23 µM (active) | IC50 [24]: > 111 µM (not active)

O=c1cc(CSc2nnc(-c3cccs3)n2Cc2ccccc2)nc2sc3ccccc3n12
IC50 [25]: 5.42 µM (active) | IC50 (Estrogen receptor beta [21]): 19.3 µM (not active) | EC50 (cells [26]): > 29.9 µM (inactive) | IC50 (Galanin receptor type 3): 0.482 µM (active) | IC50 (Estrogen receptor beta [22]): < 1.56 µM (active)

c1cc2ccc3ccc(CN4CCOCC4)c4ccc(c1)c2c34
IC50 [10]: > 69.5 µM (not active)
